Measured values as given in US10071985B2, “Therapeutic compounds” (Gilead Sciences, Inc., priority 2016, dated 2018).
Read-outs that look alike come from different tables or passages of the source. Blank lines part the entries; values can stand above or below the compound they belong to.

Tests used:
HIV-IIIb = experiment: Test A: Antiviral Assay in MT4 Cells; type: cell-based, HIV-1
Description: 1 mL Aliquots of MT4 cells were pre-infected for 3 hours at 37° C. with 25 μL of cell growth medium (mock-infected) or a fresh 1:250 dilution of an HIV-IIIb concentrated ABI stock (0.004 m.o.i.). Infected and uninfected cells were diluted in cell growth media and 35 μL (2000 cells) was added to each well of the assay plates.
Assay plates were then maintained in a humidified, 5% CO2 incubator at 37° C. After 5 days of incubation, 25 μl of 2× concentrated CellTiter-Glo™ Reagent (catalog #G7573, Promega Biosciences, Inc., Madison, Wis.) was added to each well of the assay plate. Cell lysis was carried out by incubating at room temperature for 10 minutes and then chemiluminescence was read using an Envision plate reader (PerkinElmer).

[1] = Test C: Pharmacokinetic analysis following intravenous administration to Sprague-Dawley rats; type: in vivo; details: for clearance: read-out: Rat CL (converted); for AUC(0-inf): t = 0 to infinity, read-out: Rat AUCinf; for Cmax: maximum plasma concentration
Excerpt: (§1) Test C. Pharmacokinetic Analysis Following Intravenous Administration to Sprague-Dawley Rats and Beagle Dogs and Cynomologous Monkeys
All IV formulations were in solution.
(§2) Each rat IV dosing group consisted of 3 male SD rats. […] The animals were fasted overnight prior to dose administration and up to 4 hr after dosing. Each dog IV dosing group consisted of 3 male, naïve beagle dogs. At dosing, the animals weighed ˜10-12 kg. The animals were fasted overnight prior to dose administration and up to 2 hr after dosing.
(§3) For the IV infusion group, the test compound was administered by intravenous infusion over 30 minutes. The rate of infusion was adjusted according to the body weight of each animal to deliver a dose of 1 mg/kg at 2 mL/kg.
(§4) Serial venous blood samples (approximately 0.4 mL each for rat and 1.0 mL for dog) were taken at specified time points after dosing from each animal. The blood samples were collected into Vacutainer™ tubes (Becton-Dickinson Corp, New Jersey, USA) containing EDTA as the anti-coagulant and were immediately placed on wet ice pending centrifugation for plasma. Centrifugation began within 1 hour of collection. All samples were placed into 96-well tubes and maintained on dry ice prior to storage at approximately −70° C.
(§5) An LC/MS/MS method was used to measure the concentration of test compounds in plasma.
(§6) Non-compartmental pharmacokinetic analysis was performed on the plasma concentration-time data.

[2] = Test C: Pharmacokinetic analysis following intravenous administration to cynomolgus monkeys; type: in vivo, cynomolgus (cyno) monkey; details: male, cynomolgus monkey, 1 mg/kg; for AUC(0-inf): t = 0 to infinity, read-out: Cyno AUCinf; for Cmax: maximum plasma concentration, read-out: Cyno Cmax
Description: as §1
All IV formulations were in solution.
Each cynomolgus (cyno) monkey IV dosing group consisted of 3 male, naïve cyno monkeys At dosing, the animals weighed ˜3.2-4 kg. The animals were fasted overnight prior to dose administration and up to 2 hr after dosing.
as §3, §4, §5, §6

Human Liver Hepatocytes = experiment: Test D: Metabolic Stability in Cultured Human Liver Hepatocytes; type: in vitro ADME; details: pooled cryopreserved hepatocytes, […] radiolabelled compound, 0-6 hours; calculated from stability data
Description: Test D. Metabolic Stability in Cultured Human Liver Hepatocytes
The final hepatocyte concentration was 1 million cells/mL. The hepatocyte/compound reaction mixture was dissolved in InVitroGRO™ KHB buffer (catalog #Z99074, BioreclamationIVT, Inc., Baltimore, Md.) at pH 7.4. The incubations were performed in duplicate. A cell free control and a positive control were included in the incubations. The incubations were carried out with gentle shaking in a 37° C. incubator under a humid atmosphere of 95% air/5% CO2 (v/v). Aliquots (100 mL) were removed after 0, 1, 3, and 6 hours and added to 200 mL quenching solution that comprised 0.1% (v/v) TFA in 5% water/95% acetonitrile (v/v). The samples were placed on a shaker for 10 min, followed by centrifugation at 3000 g for 30 min. The samples of the supernatant were analyzed on a Dionex HPLC/PerkinElmer Flow Scintillation Analyzer as described below.
The column was a Phenomenex Synergi fusion RP (150×4.6 mm, 4 mm) maintained at 32 degrees Celsius. Mobile Phase A consisted of 0.1% (v/v) TFA in 99% water/1% acetonitrile (v/v). Mobile Phase B consisted of 0.1% (v/v) TFA in 5% water/95% acetonitrile (v/v). […]
Metabolic stability was determined by measuring the change in relative abundance of metabolites and parent over time and calculating from it the rate of disappearance of the parent compound. […]

[3] = Test B: Cytotoxicity Assay; details: human
Description: Compound cytotoxicity and the corresponding CC50 values was determined using the same protocol as described in the antiviral assay (Test A) except that uninfected cells were used.

[4] = Test C: Pharmacokinetic analysis following intravenous administration to beagle dogs; type: in vivo
Excerpt: as §1
All IV formulations were in solution.
as §2, §3, §4, §5, §6

[5] = male, Sprague-Dawley, rat, plasma, iv, 1 mg/kg
[6] = male, Sprague-Dawley, rat, plasma, IV infusion over 30 minutes, 1 mg/kg
[7] = male, Sprague-Dawley, rat, IV infusion over 30 minutes, 1 mg/kg
[8] = plasma, IV infusion over 30 minutes
[9] = Human immunodeficiency virus 1, IIIB, MT4, 120 h

EC50 (HIV-IIIb; Human immunodeficiency virus 1, 120 h, MT4 cells infected with HIV-IIIb, 5 days incubation, CellTiter-Glo, read-out: EC50): 0.185 nM | clearance [1, 5]: 0.833 mL/min/kg | AUC(0-inf) [1, 6]: 19 µM·h | Cmax [1, 7]: 1800 nM | AUC(0-inf) [2, 8]: 4.5 µM·h | Cmax ([2]; IV infusion over 30 minutes): 1300 nM | Predicted Human Hepatic Clearance (Human Liver Hepatocytes): 0.17 mL/min/kg
Compound: CC(C)(C#Cc1ccc(-c2ccc(Cl)c3c(NS(C)(=O)=O)nn(CC(F)(F)F)c23)c([C@H](Cc2cc(F)cc(F)c2)NC(=O)Cn2nc(C(F)(F)F)c3c2C(F)(F)[C@@H]2C[C@H]32)n1)S(C)(=O)=O [Compound 24, N—((S)-1-(3-(4-chloro-3-(methylsulfonamido)-1-(2,2,2-trifluoroethyl)-1H-indazol-7-yl)-6-(3-methyl-3-(methylsulfonyl)but-1-yn-1-yl)pyridin-2-yl)-2-(3,5-difluorophenyl)ethyl)-2-((3bS,4aR)-5,5-difluoro-3-(trifluoromethyl)-3b,4,4a,5-tetrahydro-1H-cyclopropa[3,4]cyclopenta[1,2-c]pyrazol-1-yl)acetamide]
CC50 at 5 days ([3]; uninfected MT4 cells): 30100 nM

Compound: CC(C)(C#Cc1ccc(-c2ccc(Cl)c3c(NS(=O)(=O)C4CC4)nn(CC(F)F)c23)c([C@H](Cc2cc(F)cc(F)c2)NC(=O)Cn2nc(C(F)F)c3c2C(F)(F)[C@@H]2C[C@H]32)n1)S(C)(=O)=O [Compound 38, N—((S)-1-(3-(4-chloro-3-(cyclopropanesulfonamido)-1-(2,2-difluoroethyl)-1H-indazol-7-yl)-6-(3-methyl-3-(methylsulfonyl)but-1-yn-1-yl)pyridin-2-yl)-2-(3,5-difluorophenyl)ethyl)-2-((3bS,4aR)-3-(difluoromethyl)-5,5-difluoro-3b,4,4a,5-tetrahydro-1H-cyclopropa[3,4]cyclopenta[1,2-c]pyrazol-1-yl)acetamide]
EC50 (HIV-IIIb; [9]): 0.399 nM | times more potent in HIV antiviral assay relative to compound A (HIV-IIIb; relative to compound A): about 4 times | times more potent in HIV antiviral assay relative to compound B (HIV-IIIb; relative to compound B): about 8 times | clearance [1, 5]: 1.33 mL/min/kg | half-life ([1]; male, Sprague-Dawley, rat, plasma, iv, 1 mg/kg, read-out: Rat t1/2 (converted)): 19 h | AUC(0-inf) [1, 6]: 13 µM·h | Vd ([1]; male, Sprague-Dawley, rat, plasma, IV infusion over 30 minutes, 1 mg/kg, volume of distribution at steady state, read-out: Rat Vss): 1.8 L/kg | Cmax [1, 7]: 2400 nM | times longer in vivo terminal half-life in rat relative to compound A ([1]; relative to compound A): about 9.5 times | times lower in vivo clearance in rat relative to compound A ([1]; relative to compound A): about 6.3 times | times longer in vivo terminal half-life in rat relative to compound B ([1]; relative to compound B): about 6.3 times | times lower in vivo clearance in rat relative to compound B ([1]; relative to compound B): about 5.4 times | in vivo clearance and terminal half-life in dog compared to compounds A and B ([4]; compared to compounds A and B): similar | clearance ([4]; male, beagle, dog, plasma, iv, 1 mg/kg, read-out: Dog CL (converted)): 5.5 mL/min/kg | half-life ([4]; male, beagle, dog, plasma, iv, 1 mg/kg, read-out: Dog t1/2 (converted)): 7 h | AUC(0-inf) ([4]; male, beagle, dog, plasma, IV infusion over 30 minutes, 1 mg/kg, t = 0 to infinity, read-out: Dog AUCinf): 3.3 µM·h | Vd ([4]; male, beagle, dog, plasma, IV infusion over 30 minutes, 1 mg/kg, volume of distribution at steady state, read-out: Dog Vss): 1.77 L/kg | Cmax ([4]; male, beagle, dog, IV infusion over 30 minutes, 1 mg/kg, maximum plasma concentration): 1600 nM | clearance ([2]; plasma, iv, read-out: Cyno CL (converted)): 3.5 mL/min/kg | half-life ([2]; plasma, iv, read-out: Cyno t1/2 (converted)): 9.5 h | AUC(0-inf) [2, 8]: 4.9 µM·h | Vd ([2]; plasma, IV infusion over 30 minutes, volume of distribution at steady state, read-out: Cyno Vss): 2.1 L/kg | Cmax ([2]; IV infusion over 30 minutes): 1300 nM | CC50 at 5 days [3]: 55200 nM

EC50 (HIV-IIIb; [9]): 2.99 nM
Compound: Cn1nc(NS(C)(=O)=O)c2c(Cl)ccc(-c3ccc(C#CC(C)(C)O)nc3[C@H](Cc3cc(F)cc(F)c3)NC(=O)Cn3nc(C(F)(F)F)c4c3C(F)(F)[C@@H]3C[C@H]43)c21 [Compound B, reference compound]
